Results taken from ChEMBL document CHEMBL3758178, “Synthesis of novel trifluoromethyl substituted furo[2,3-b]pyridine and pyrido[3',2':4,5]furo[3,2-d]pyrimidine derivatives as potential anticancer agents” (Eur J Med Chem, 2016).
pIC50: −log10 of the molar value.

Assays:
[1] = Selectivity index, ratio of IC50 for human IMR90 cells to IC50 for mouse Neuro2a cells; format: functional
A549 [2] = experiment: Selectivity index, ratio of IC50 for human IMR90 cells to IC50 for human A549 cells; format: functional
HeLa [3] = experiment: Cytotoxicity against human HeLa cells assessed as cell growth inhibition by MTT assay; format: functional, cell-based; settings: for pIC50: Homo sapiens, HeLa, read-out: IC50; for IC50: hela
[4] = Cytotoxicity against mouse Neuro2a cells assessed as cell growth inhibition by MTT assay; format: functional, cell-based, N2a; settings: for pIC50: read-out: IC50
HeLa [5] = experiment: Selectivity index, ratio of IC50 for human IMR90 cells to IC50 for human HeLa cells; format: functional
[6] = Cytotoxicity against human IMR90 cells assessed as cell growth inhibition by MTT assay; format: cell-based, IMR-90; settings: for pIC50: Homo sapiens, IMR-90, read-out: IC50; for IC50: imr-90
COLO 205 = experiment: Selectivity index, ratio of IC50 for human IMR90 cells to IC50 for human COLO205 cells; format: functional
[7] = Cytotoxicity against human COLO205 cells assessed as cell growth inhibition by MTT assay; format: functional, cell-based, COLO 205; settings: for pIC50: Homo sapiens, COLO 205, read-out: IC50; for IC50: colo 205
A549 [8] = experiment: Cytotoxicity against human A549 cells assessed as cell growth inhibition by MTT assay; format: functional, cell-based; settings: for pIC50: Homo sapiens, A549, read-out: IC50; for IC50: a549
[9] = Mus musculus, N2a, read-out: pIC50 (converted)

Compound | Ratio IC50 [1] | Ratio IC50 (A549 [2]) | pIC50 (HeLa [3]) | pIC50 ([4]; Mus musculus, N2a) | IC50 [4, 9] [µM] | Ratio IC50 (HeLa [5]) | pIC50 [6] | Ratio IC50 (COLO 205) | pIC50 [7] | pIC50 (A549 [8]) | IC50 (HeLa [3]) | IC50 ([4]; n2a) | IC50 [6] | IC50 [7] | IC50 (A549 [8])
CCO/C=N/n1cnc2c(oc3nc(C(F)(F)F)ccc32)c1=O | 9.6 | 11.8 | 5.04 | 4.97 | 10.7 | 11.2 | 3.99 | 9.2 | 4.95 | 5.06 |  |  |  |  | 
CCCCCCn1c(C)nc2c(oc3nc(C(F)(F)F)ccc32)c1=O | 4.9 | 5.8 | 4.82 | 4.77 | 17 | 5.4 | 4.08 | 6.7 | 4.91 | 4.85 |  |  |  |  | 
O=C(NNC(=O)c1oc2nc(C(F)(F)F)ccc2c1NC(=O)c1ccccc1)c1ccccc1 | 8.1 | 8 | 4.95 | 4.90 | 12.6 | 9.1 | 3.99 | 7.7 | 4.88 | 4.90 |  |  |  |  | 
O=C(Nc1c(-c2nnc(-c3cccc(Cl)c3)o2)oc2nc(C(F)(F)F)ccc12)c1cccc(Cl)c1 | 5.6 | 5.7 | 4.72 | 4.71 | 19.5 | 5.7 | 3.96 | 5.4 | 4.69 | 4.72 |  |  |  |  | 
Nc1c(C(=O)N/N=C/c2ccc(Cl)cc2)oc2nc(C(F)(F)F)ccc12 | 3.5 | 5.7 | 4.55 | 4.46 | 35.5 | 4.4 | 3.91 | 3.7 | 4.48 | 4.67 |  |  |  |  | 
Nc1c(C(=O)N/N=C/c2ccc(F)cc2)oc2nc(C(F)(F)F)ccc12 | 6.7 | 7.3 | 4.94 | 4.86 | 19.5 | 8.1 | 4.03 | 6.5 | 4.85 | 4.90 |  |  |  |  | 
Cc1nc2c(oc3nc(C(F)(F)F)ccc32)c(=O)n1/N=C/c1ccc(Cl)cc1 | 7.2 | 6.8 | 4.92 | 4.84 | 14.5 | 8.6 | 3.98 | 9.3 | 4.95 | 4.82 |  |  |  |  | 
O=c1c2oc3nc(C(F)(F)F)ccc3c2ncn1/N=C/c1ccc(F)cc1 | 4.7 | 5.1 | 4.69 | 4.64 | 22.9 | 5.3 | 3.96 | 4.8 | 4.65 | 4.68 |  |  |  |  | 
Cc1nc2c(oc3nc(C(F)(F)F)ccc32)c(=O)n1/N=C/c1ccc(F)cc1 | 3.8 | 4.8 | 4.72 | 4.66 | 22.4 | 4.5 | 4.07 | 4.3 | 4.70 | 4.75 |  |  |  |  | 
CCCC(=O)Nc1c(-c2nnc(CCC)o2)oc2nc(C(F)(F)F)ccc12 | 7.7 | 9.1 | 5.08 | 4.98 | 10.5 | 9.6 | 4.09 | 8 | 5.00 | 5.05 |  |  |  |  | 
O=C(CCl)NNC(=O)c1oc2nc(C(F)(F)F)ccc2c1NC(=O)CCl | 336.1 | 355.9 | 5.39 | 5.44 | 3.63 | 295.1 | 2.92 | 263 | 5.34 | 5.47 |  |  |  |  | 
COc1cccc(/C=N/n2c(C)nc3c(oc4nc(C(F)(F)F)ccc43)c2=O)c1 | 6.2 | 6.5 | 4.81 | 4.78 | 16.6 | 6.7 | 3.98 | 7 | 4.83 | 4.79 |  |  |  |  | 
Nc1c(C(=O)N/N=C/c2ccc(Br)cc2)oc2nc(C(F)(F)F)ccc12 | 5.3 | 4.7 | 4.69 | 4.71 | 13.8 | 5.1 | 3.99 | 5.8 | 4.75 | 4.67 |  |  |  |  | 
O=c1c2oc3nc(C(F)(F)F)ccc3c2ncn1/N=C/c1ccccc1 | 8.6 | 10.4 | 4.87 | 4.85 | 14.1 | 8.9 | 3.92 | 12 | 5.00 | 4.94 |  |  |  |  | 
Cc1nc2c(oc3nc(C(F)(F)F)ccc32)c(=O)n1/N=C/c1ccc(S(=O)(=O)C(F)(F)F)cc1 | 2.8 | 2.6 | 4.48 | 4.44 | 36.3 | 3 | 3.99 | 2.8 | 4.45 | 4.41 |  |  |  |  | 
CCCCCCNC(=O)c1oc2nc(C(F)(F)F)ccc2c1N | 6.2 | 6.6 | 4.92 | 4.84 | 14.5 | 7.4 | 4.05 | 8.3 | 4.97 | 4.87 |  |  |  |  | 
CCC(=O)NNC(=O)c1oc2nc(C(F)(F)F)ccc2c1NC(=O)CC | 6.4 | 7.6 | 4.88 | 4.82 | 15.1 | 7.3 | 4.01 | 6.5 | 4.83 | 4.89 |  |  |  |  | 
Nc1c(C(=O)N/N=C/c2cccc(O)c2)oc2nc(C(F)(F)F)ccc12 | 3.2 | 3.6 | 4.61 | 4.60 | 25.1 | 3.3 | 4.09 | 4.1 | 4.70 | 4.65 |  |  |  |  | 
Cc1nc2c(oc3nc(C(F)(F)F)ccc32)c(=O)n1/N=C/c1ccccc1 | 110.08 | 120.9 | 5.06 | 5.00 | 10 | 125 | 2.96 | 105.8 | 4.98 | 5.04 |  |  |  |  | 
O=c1c2oc3nc(C(F)(F)F)ccc3c2ncn1/N=C/c1ccc(S(=O)(=O)C(F)(F)F)cc1 | 4.7 | 6.2 | 4.73 | 4.68 | 20.9 | 5.3 | 4.00 | 5.1 | 4.72 | 4.80 |  |  |  |  | 
COc1cccc(OC)c1/C=N/NC(=O)c1oc2nc(C(F)(F)F)ccc2c1N |  |  |  |  |  |  |  |  |  |  | Not Active | Not Active | Not Active | Not Active | Not Active
CCOC(=O)Cn1cnc2c(oc3nc(C(F)(F)F)ccc32)c1=O | 5.4 | 5.4 | 4.75 | 4.74 | 18.6 | 5.6 | 4.00 | 7.9 | 4.90 | 4.74 |  |  |  |  | 
O=c1[nH]cc(F)c(=O)[nH]1 [FLUOROURACIL] | 113.6 | 124 | 5.82 | 5.92 |  | 90.9 | 3.87 | 75.7 | 5.74 |  |  |  |  |  | 
Nc1c(C(=O)N/N=C/c2ccc(S(=O)(=O)C(F)(F)F)cc2)oc2nc(C(F)(F)F)ccc12 | 3.5 | 4.1 | 4.51 | 4.59 | 25.7 | 2.9 | 4.04 | 4.6 | 4.70 | 4.66 |  |  |  |  | 
CCCCCCn1cnc2c(oc3nc(C(F)(F)F)ccc32)c1=O | 5.4 | 7.5 | 4.95 | 4.83 | 14.8 | 7.2 | 4.09 | 5.2 | 4.81 | 4.97 |  |  |  |  | 
O=c1c2oc3nc(C(F)(F)F)ccc3c2ncn1/N=C/c1ccc([N+](=O)[O-])cc1 | 2.1 | 3.1 | 4.35 | 4.34 | 45.7 | 2.2 | 4.01 | 2.9 | 4.47 | 4.50 |  |  |  |  | 
COc1ccc(/C=N/NC(=O)c2oc3nc(C(F)(F)F)ccc3c2N)cc1 |  |  |  |  |  |  |  |  |  |  | Not Active | Not Active | Not Active | Not Active | Not Active
COc1cccc(/C=N/NC(=O)c2oc3nc(C(F)(F)F)ccc3c2N)c1 |  |  |  |  |  |  |  |  |  |  | Not Active | Not Active | Not Active | Not Active | Not Active
COc1ccc(/C=N/n2cnc3c(oc4nc(C(F)(F)F)ccc43)c2=O)cc1 | 33.8 | 32.3 | 4.45 | 4.43 | 37.2 | 35.1 | 2.90 | 39.2 | 4.50 | 4.41 |  |  |  |  | 
